The values below come from ChEMBL document CHEMBL1133412, “Rational design, synthesis and structure-activity relationships of antitumor (E)-2-benzylidene-1-tetralones and (E)-2-benzylidene-1-indanones” (Bioorg Med Chem Lett, 2000).

Assay [1] deals with A549. The experiment in a line: Cytotoxicity was evaluated against A549 tumor cell lines; Slightly active. The note with it: Homo sapiens. The format is functional, cell-based.
In assay [2] the test system is NIH3T3. The experiment in a line: Cytotoxicity was evaluated against NIH3T3 tumor cell lines; Slightly active. The note with it: Mus musculus. In kind it is functional, cell-based.
Assay [3] concerns WI-38. The experiment in a line: Cytotoxicity was evaluated against WI38 tumor cell lines; Slightly active. The note with it: Homo sapiens. In kind it is functional, cell-based.
Assay [4] concerns NCI-H292. The experiment in a line: Cytotoxicity was evaluated against H292 tumor cell lines; Slightly active. The conditions noted are these: Homo sapiens. In kind it is functional, cell-based.
The subject of assay [5] is CCRF-CEM. The experiment in a line: Cytotoxicity was evaluated against CEM tumor cell lines; Slightly active. The format is functional, cell-based. The conditions noted are these: Homo sapiens.
In assay [6] the test system is MCF7. The experiment in a line: Cytotoxicity was evaluated against MCF-7 tumor cell lines; Slightly active. The format is functional, cell-based. The conditions noted are these: Homo sapiens.
Assay [7] relates to MOLT-4. The experiment in a line: Cytotoxicity was evaluated against Molt-4 tumor cell lines; Slightly active. The format is functional, cell-based. The conditions noted are these: Homo sapiens.
Assay [8] concerns HL-60. The experiment in a line: Cytotoxicity was evaluated against HL-60 tumor cell lines; Slightly active. The format is functional, cell-based. The conditions noted are these: Homo sapiens.
For assay [9], the system named is K562. The experiment in a line: Cytotoxicity was evaluated against K562 tumor cell lines; Slightly active. The format is functional, cell-based. The conditions noted are these: Homo sapiens.
Assay [10] deals with NCI-H596. The experiment in a line: Cytotoxicity was evaluated against H596 tumor cell lines; Slightly active. The format is functional, cell-based. The conditions noted are these: Homo sapiens.
Assay [11] relates to WIL2. The experiment in a line: Cytotoxicity was evaluated against WIL2 tumor cell lines; Slightly active. The format is functional, cell-based. The conditions noted are these: Homo sapiens.
Another assay deals with Jurkat. The experiment in a line: In vitro test for antitumor activity against human Jurkat cell line using a formazan dye (MTT) conversion assay. The format is functional, cell-based.
Assay [12] concerns B16. The experiment in a line: Cytotoxicity was evaluated against B16 tumor cell lines; Slightly active. In kind it is functional, cell-based. The note with it: Mus musculus.
Assay [13] relates to L1210. The experiment in a line: Cytotoxicity was evaluated against L1210 tumor cell lines; Slightly active. The format is functional, cell-based. The conditions noted are these: Mus musculus.
The subject of assay [14] is NCI-H596. The experiment in a line: Cytotoxicity evaluated against H596 tumor cell lines; Significant activity. In kind it is functional, cell-based. The note with it: Homo sapiens.
Assay [15] has as its system MCF7. The experiment in a line: Cytotoxicity evaluated against MCF-7 tumor cell lines; Significant activity. The note with it: Homo sapiens. In kind it is functional, cell-based.
For assay [16], the system named is A549. The experiment in a line: Cytotoxicity evaluated against A549 tumor cell lines; significant activity. In kind it is functional, cell-based. The note with it: Homo sapiens.
For assay [17], the system named is HL-60. The experiment in a line: Cytotoxicity evaluated against HL-60 tumor cell lines; Significant activity. The note with it: Homo sapiens. The format is functional, cell-based.
Assay [18] concerns CCRF-CEM. The experiment in a line: Cytotoxicity evaluated against CEM tumor cell lines; Significant activity. The format is functional, cell-based. The conditions noted are these: Homo sapiens.
Assay [19] deals with MOLT-4. The experiment in a line: Cytotoxicity was evaluated against Molt-4 tumor cell lines. In kind it is functional, cell-based. The note with it: Homo sapiens.
The test system of assay [20] is NCI-H292. The experiment in a line: Cytotoxicity evaluated against H292 tumor cell lines; Significant activity. In kind it is functional, cell-based. The conditions noted are these: Homo sapiens.
Assay [21] deals with L1210. The experiment in a line: Cytotoxicity evaluated against L1210 tumor cell lines; Significant activity. In kind it is functional, cell-based. The note with it: Mus musculus.
Assay [22] has as its system WI-38. The experiment in a line: Cytotoxicity evaluated against WI38 tumor cell lines; Significant activity. The note with it: Homo sapiens. In kind it is functional, cell-based.
The subject of the next assay is Tumor cell line. The experiment in a line: In vivo testing against tumor cells that were placed in the polyvinylidene fluoride (PVDF) hollow fibers of capsules and then implanted in to mice intraperitoneally or subcutaneously. In kind it is functional, Mus musculus.
The test system of assay [23] is WIL2. The experiment in a line: Cytotoxicity evaluated against WIL2 tumor cell lines; Significant activity. The format is functional, cell-based. The note with it: Homo sapiens.
The subject of assay [24] is K562. The experiment in a line: Cytotoxicity evaluated against K562 tumor cell lines; Significant activity. In kind it is functional, cell-based. The note with it: Homo sapiens.
The subject of assay [25] is B16. The experiment in a line: Cytotoxicity was evaluated against B16 tumor cell lines; Significant activity. The format is functional, cell-based. The note with it: Mus musculus.
The subject of assay [26] is NIH3T3. The experiment in a line: Cytotoxicity evaluated against NIH3T3 tumor cell lines; Significant activity. In kind it is functional, cell-based. The conditions noted are these: Mus musculus.

Each structure is given as a SMILES string.

Turning to `COc1cc2c(cc1OC)C(=O)/C(=C/c1cc(C)ccc1C)C2`, the Cytotoxicity entry in the assay on A549 [1], in the assay with NIH3T3 [2], in the assay on WI-38 [3], with NCI-H292 [4], with CCRF-CEM [5] and in the assay with MCF7 [6] was “Weak activity” each time. The Cytotoxicity entry with MOLT-4 [7], with HL-60 [8], in the assay on K562 [9], with NCI-H596 [10], in the assay with WIL2 [11] and with B16 [12] was “Weak activity” throughout. Further, in the assay on L1210 [13], the Cytotoxicity result is “Weak activity”. Further, the half-maximal inhibitory concentration (IC50) with Jurkat stood at 30.5 µM.
With `COc1cc2c(cc1OC)C(=O)/C(=C/c1ccc(N)cc1)CC2`, the Cytotoxicity result in the assay on A549 [1], in the assay on NIH3T3 [2], in the assay with WI-38 [3], in the assay on NCI-H292 [4], in the assay on CCRF-CEM [5] and with MCF7 [6] was “Weak activity” in each case. The Cytotoxicity result with MOLT-4 [7], with HL-60 [8], with K562 [9], in the assay with NCI-H596 [10], with WIL2 [11] and with B16 [12] was “Weak activity” throughout. Also, in the assay with L1210 [13], the Cytotoxicity result is “Weak activity”. In the assay on Jurkat, this compound gave a concentration for half-maximal inhibition (IC50) of 40 µM.
Turning to `COc1cc2c(cc1OC)C(=O)/C(=C/c1cc(C)c(OC(=O)OCC(C)C)c(C)c1)C2`, the Cytotoxicity entry in the assay on A549 [1], in the assay with NIH3T3 [2], in the assay on WI-38 [3], in the assay on NCI-H292 [4], with CCRF-CEM [5] and with MCF7 [6] was “Weak activity” each time. Besides, the Cytotoxicity entry with MOLT-4 [7], in the assay with HL-60 [8], in the assay with K562 [9], in the assay on NCI-H596 [10], with WIL2 [11] and in the assay on B16 [12] was “Weak activity” each time. Besides, the Cytotoxicity result with L1210 [13] was “Weak activity”. The same compound displayed a half-maximal inhibitory concentration (IC50) in the assay on Jurkat of 21.5 µM.
Consider `COc1cc2c(cc1OC)C(=O)/C(=C/c1cccc([N+](=O)[O-])c1)C2`, for which the Cytotoxicity result with A549 [1], in the assay on NIH3T3 [2], in the assay on WI-38 [3], with NCI-H292 [4], with CCRF-CEM [5] and with MCF7 [6] was “Weak activity” in each case. The Cytotoxicity entry with MOLT-4 [7], with HL-60 [8], in the assay with K562 [9], in the assay on NCI-H596 [10], in the assay on WIL2 [11] and with B16 [12] was “Weak activity” each time. The Cytotoxicity entry in the assay on L1210 [13] is “Weak activity”. This compound yielded a half-inhibitory concentration (IC50) with Jurkat of 22 µM.
Take `COc1cc2c(cc1OC)C(=O)/C(=C/c1cc(Cl)cc(Cl)c1)C2`: the Cytotoxicity entry in the assay on NCI-H596 [14], in the assay with MCF7 [15], in the assay on A549 [16], in the assay on HL-60 [17], with CCRF-CEM [18] and in the assay on MOLT-4 [19] was “Significant activity” in each case. Besides, the Cytotoxicity entry in the assay with NCI-H292 [20], with L1210 [21], in the assay on WI-38 [22], with WIL2 [23], with K562 [24] and with B16 [25] was “Significant activity” each time. Further, the Cytotoxicity result in the assay on NIH3T3 [26] was “Significant activity”. For the same compound, the “IP+SC score” value in the assay on Tumor cell line is <20. In the assay on Jurkat, this compound registered an IC50 of 2 µM.
As to `COc1cc2c(cc1OC)C(=O)/C(=C/c1cc(C)cc(C)c1)C2`, the Cytotoxicity result in the assay with NCI-H596 [14], with MCF7 [15], in the assay on A549 [16], with HL-60 [17], in the assay on CCRF-CEM [18] and with MOLT-4 [19] was “Significant activity” in each case. For the same compound, the Cytotoxicity result with NCI-H292 [20], in the assay with L1210 [21], in the assay on WI-38 [22], in the assay on WIL2 [23], in the assay on K562 [24] and in the assay on B16 [25] was “Significant activity” in each case. Further, the Cytotoxicity result in the assay on NIH3T3 [26] was “Significant activity”. The “IP+SC score” value in the assay on Tumor cell line is <20. Besides, the half-maximal inhibitory concentration (IC50) in the assay with Jurkat turned out to be 0.08 µM.
For the compound `COc1cc2c(cc1OC)C(=O)/C(=C/c1cc(C)c([N+](=O)[O-])c(C)c1)C2`, the Cytotoxicity result in the assay with A549 [1], with NIH3T3 [2], with WI-38 [3], with NCI-H292 [4], in the assay on CCRF-CEM [5] and in the assay with MCF7 [6] was “Weak activity” throughout. Also, the Cytotoxicity entry in the assay with MOLT-4 [7], in the assay on HL-60 [8], in the assay on K562 [9], in the assay on NCI-H596 [10], with WIL2 [11] and in the assay on B16 [12] was “Weak activity” in each case. Also, the Cytotoxicity result in the assay on L1210 [13] was “Weak activity”. This compound registered an IC50 in the assay with Jurkat of 25 µM.
With `COc1cc(/C=C2\Cc3cc(OC)c(OC)cc3C2=O)cc(OC)c1`, the Cytotoxicity result in the assay with NCI-H596 [14], in the assay with MCF7 [15], in the assay with A549 [16], in the assay on HL-60 [17], in the assay on CCRF-CEM [18] and in the assay on MOLT-4 [19] was “Significant activity” in each case. The Cytotoxicity result in the assay with NCI-H292 [20], with L1210 [21], with WI-38 [22], in the assay on WIL2 [23], with K562 [24] and in the assay on B16 [25] was “Significant activity” throughout. Also, the Cytotoxicity result in the assay with NIH3T3 [26] was “Significant activity”. For the same compound, the “IP+SC score” value with Tumor cell line is <20. Moreover, the concentration for half-maximal inhibition (IC50) in the assay on Jurkat came to 3 µM.
Consider `COc1cc2c(cc1OC)C(=O)/C(=C/c1cc(C)c(O)c(C)c1)C2`, for which the Cytotoxicity result with NCI-H596 [14], with MCF7 [15], in the assay on A549 [16], in the assay with HL-60 [17], with CCRF-CEM [18] and with MOLT-4 [19] was “Significant activity” throughout. In addition, the Cytotoxicity entry in the assay on NCI-H292 [20], with L1210 [21], with WI-38 [22], in the assay on WIL2 [23], with K562 [24] and in the assay with B16 [25] was “Significant activity” each time. For the same compound, the Cytotoxicity entry with NIH3T3 [26] was “Significant activity”. Further, in the assay with Tumor cell line, the “IP+SC score” value was >20. Further, 0.006 µM corresponded to half-maximal inhibition with Jurkat (IC50).
`COc1cc2c(c(N)c1O)C/C(=C\c1cc(C)c(O)c(C)c1)C2=O`: the Cytotoxicity result with A549 [1], with NIH3T3 [2], in the assay with WI-38 [3], with NCI-H292 [4], with CCRF-CEM [5] and in the assay with MCF7 [6] was “Weak activity” throughout. Also, the Cytotoxicity result in the assay with MOLT-4 [7], with HL-60 [8], in the assay on K562 [9], with NCI-H596 [10], with WIL2 [11] and with B16 [12] was “Weak activity” in each case. For the same compound, the Cytotoxicity result with L1210 [13] is “Weak activity”. The compound further yielded an IC50 with Jurkat of 30 µM.
